Assay results as given in US5021562A, “Method for azide displacement of α-triflates of 1,5-lactones” (Monsanto Company, priority 1990, dated 1991).

Tests used:
Assay type in all cases: biochemical
human α-mannosidases = test: Inhibition of human α-mannosidases (overall statement, glycosidase panel)
From the text: (§1) The relative potencies of these compounds as fucosidase inhibitors may be understood by considering them as analogues of α-L-fucose; all three compounds have the correct chirality of the secondary hydroxyl groups - the minimum requirement for inhibition of α-fucosidase. […] All the compounds are weaker inhibitors of α-fucosidase than is deoxyfuconojirimycin, since they all lack a lipophilic methyl substituent with correct configuration.

human liver α-fucosidase = target: T1, human liver α-fucosidase (Homo sapiens, UniProt P04066); test: Inhibition of human liver α-fucosidase
T1 construct: from tissue; host or cells: human liver
T1 sequence (P04066 32-466): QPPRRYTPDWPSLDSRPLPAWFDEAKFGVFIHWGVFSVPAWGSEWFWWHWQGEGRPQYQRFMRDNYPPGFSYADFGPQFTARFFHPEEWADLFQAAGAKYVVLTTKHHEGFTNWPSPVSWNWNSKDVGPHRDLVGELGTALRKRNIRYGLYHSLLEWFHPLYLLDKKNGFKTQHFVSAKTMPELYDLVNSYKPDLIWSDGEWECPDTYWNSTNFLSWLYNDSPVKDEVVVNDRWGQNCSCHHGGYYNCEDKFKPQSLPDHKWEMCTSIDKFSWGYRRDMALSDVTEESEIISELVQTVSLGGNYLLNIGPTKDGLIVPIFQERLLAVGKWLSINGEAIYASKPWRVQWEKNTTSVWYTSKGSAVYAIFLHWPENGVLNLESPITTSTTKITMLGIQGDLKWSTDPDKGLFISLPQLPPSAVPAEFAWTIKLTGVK
Protocol: % Inhibition of human liver α-fucosidase and α-mannosidase
catalysed hydrolysis of 4-umbelliferyl pyrranosides at
1 mM concentration of inhibitor

β-mannosidase = test: Inhibition of human liver β-mannosidase (glycosidase panel)
From the text: as §1

inhibition of α-mannosidases (in words) (human α-mannosidases)	inhibition of α-fucosidase (in words) (human liver α-fucosidase)	SMILES	inhibition of β-mannosidase (in words) (β-mannosidase)
did not inhibit any α-mannosidase	powerful inhibitors of α-fucosidase	OC[C@@H]1N[C@H](CO)[C@@H](O)[C@@H](O)[C@@H]1O [6-epi-HMJ, 2,6-dideoxy-2,6-imino-L-glycero-D-talo-heptitol]	–
very similar	only a weak inhibitor	OC[C@H]1N[C@H](CO)[C@@H](O)C(O)[C@@H]1O (stereo partly drawn) [α-HMJ, 2,6-Dideoxy-2,6-imino-D-glycero-D-talo-heptitol]	Neither compound inhibited β-mannosidase

SMILES	inhibition of α-mannosidases (in words) (human α-mannosidases)	inhibition of α-fucosidase (in words) (human liver α-fucosidase)	inhibition of β-mannosidase (in words) (β-mannosidase)
OC[C@H]1NC[C@@H](O)[C@@H](O)[C@@H]1O [DMJ, reference compound]	very similar	powerful inhibitors of α-fucosidase	Neither compound inhibited β-mannosidase
